Results from patent US11254690B2, “PTEFb inhibiting macrocyclic compounds” (BAYER AKTIENGESELLSCHAFT, priority 2017, dated 2022).

Experiments:
B16F10 cells = test: Proliferation assay, B16F10; format: cell-based; conditions: Mus musculus, B16-F10, 96 h; 4 days, crystal violet; read-out: Inhibition of B16F10 cell proliferation IC50
Description: Cultivated tumour cells (HeLa, human cervical tumour cells, ATCC CCL-2; NCI-H460, human non-small cell lung carcinoma cells, ATCC HTB-177; DU 145, hormone-independent human prostate carcinoma cells, ATCC HTB-81; HeLa-MaTu-ADR, multidrug-resistant human cervical carcinoma cells, EPO-GmbH Berlin; Caco-2, human colorectal carcinoma cells, ATCC HTB-37; B16F10, mouse melanoma cells, ATCC CRL-6475) were plated at a density of 5,000 cells/well (DU145, HeLa-MaTu-ADR), 3,000 cells/well (NCI-H460, HeLa), 1,500 cells/well (Caco-2), or 1,000 cells/well (B16F10) in a 96-well multititer plate in 200 μL of their respective growth medium supplemented 10% fetal calf serum. After 24 hours, the cells of one plate (zero-point plate) were stained with crystal violet (see below), while the medium of the other plates was supplemented with the test substances in various concentrations (0 μM, as well as in the range of 0.0001-10 μM; the final concentration of the solvent dimethyl sulfoxide was adjusted to 0.1%) using a Hewlett-Packard HP D300 Digital Dispenser. The cells were incubated for 4 days in the presence of test substances. Cell proliferation was determined by staining the cells with crystal violet: the cells were fixed by adding 20 μl/measuring point of an 11% glutaric aldehyde solution for 15 minutes at room temperature. After three washing cycles of the fixed cells with water, the plates were dried at room temperature. The cells were stained by adding 100 μl/measuring point of a 0.1% crystal violet solution (pH 3.0). After three washing cycles of the stained cells with water, the plates were dried at room temperature. The dye was dissolved by adding 100 μl/measuring point of a 10% acetic acid solution. The extinction was determined by photometry at a wavelength of 595 nm. The change of cell number, in percent, was calculated by normalization of the measured values to the extinction values of the zero-point plate (=0%) and the extinction of the untreated ([…]) cells (=100%). The IC50 values (inhibitory concentration at 50% of maximal effect) were determined by means of a 4 parameter fit. A2780 human ovarian carcinoma cells (ECACC #93112519) and non-adherent MOLM-13 human acute myeloid leukemia cells (DSMZ ACC 554) were seeded at a density of 3,000 cell/well (A2780) or 5,000 cells/well (MOLM-13) in a 96-well multititer plate in 150 μL of growth medium supplemented 10% fetal calf serum. After 24 hours, cell viability of one plate (zero-point plate) was determined with the Cell Titre-Glo Luminescent Cell Viability Assay (Promega), while the medium of the other plates was supplemented with the test substances in various concentrations (0 μM, as well as in the range of 0.0001-10 μM; the final concentration of the solvent dimethyl sulfoxide was adjusted to 0.1%) using a Hewlett-Packard HP D300 Digital Dispenser. Cell viability was assessed after 72-hour exposure with the Cell Titre-Glo Luminescent Cell Viability Assay (Promega). IC50 values (inhibitory concentration at 50% of maximal effect) were determined by means of a 4 parameter fit on measurement data which were normalized to vehicle (DMSO) treated cells (=100%) and measurement readings taken immediately before compound exposure (=0%).

[1] = molecular target: T1, human PTEFb (CDK9/Cyclin T1) (Homo sapiens, UniProt P50750); test: Surface Plasmon Resonance PTEFb; format: binding; conditions: SPR, 37° C.
T1 construct: purchased ProQinase, Freiburg, Germany
Text: 8. Surface Plasmon Resonance PTEFb
The term “surface plasmon resonance”, as used herein, refers to an optical phenomenon that allows for the analysis of the reversible associations of biological molecules in real time within a biosensor matrix, for example using the Biacore® system (GE Healthcare Biosciences, Uppsala, Sweden). Biacore® uses the optical properties of surface plasmon resonance (SPR) to detect alterations in the refractive index of a buffer, which changes as molecules in solution interact with the target immobilized on the surface. In brief, proteins are covalently bound to the dextran matrix at a known concentration and a ligand for the protein is injected through the dextran matrix. Near infrared light, directed onto the opposite side of the sensor chip surface is reflected and also induces an evanescent wave in the gold film, which in turn, causes an intensity dip in the reflected light at a particular angle known as the resonance angle. If the refractive index of the sensor chip surface is altered (e.g. by compound binding to the bound protein) a shift occurs in the resonance angle. This angle shift can be measured.
The term “KD”, as used herein, is intended to refer to the equilibrium dissociation constant of a particular compound/target protein complex.
The term “koff”, as used herein, is intended to refer to the off-rate, i.e. the dissociation rate constant of a particular compound/target protein complex.
The term “target residence time”, as used herein, is intended to refer to the inverse of the rate of dissociation rate constant (1/koff) of a particular compound/target protein complex.
The ability of the compounds according to the invention to bind human PTEFb may be determined using surface plasmon resonance (SPR). KD values and koff values may be measured using a Biacore® T200 instrument (GE Healthcare, Uppsala, Sweden).
For SPR measurements, recombinant human PTEFb (CDK9/Cyclin T1 recombinant human active protein kinase purchased from ProQinase, Freiburg, Germany) is immobilized using standard amine coupling (Johnsson B et al, Anal Biochem. 1991 Nov. 1; 198(2):268-77). Briefly, carboxymethylated dextran biosensor chips (CM7, GE Healthcare) are activated with N-ethyl-N′-(3-dimethylaminopropyl)-carbodiimide hydrochloride (EDC) and N-hydroxysuccinimide (NHS) according to the supplier's instructions. Human PTEFb is diluted in 1×HBS-EP+ (GE Healthcare) and injected on the activated chip surface. Subsequently, a 1:1 solution of 1 M ethanolamine-HCl (GE Healthcare) and 1×HBS-EP is injected to block unreacted groups, resulting in approximately 4000 response units (RU) of immobilized protein. A reference surface is generated by treatment with NHS-EDC and ethanolamine-HCl. Compounds are dissolved in 100% dimethylsulfoxide (DMSO, Sigma-Aldrich, Germany) to a concentration of 10 mM and subsequently diluted in running buffer (1×HBS-EP+pH 7.4 [generated from HBS-EP+ Buffer 10× (GE Healthcare): 0.1 M HEPES, 1.5 M NaCl, 30 mM EDTA and 0.5% v/v Surfactant P20], 1% v/v DMSO). For kinetic measurements, serial dilutions of compound (0.78 nM up to 25 nM) are injected over immobilized protein. Binding kinetics is measured at 37° C. with a flow rate of 100 μl/min in running buffer. Compound concentrations are injected for 70 s followed by a dissociation time of 1100 s. The resulting sensorgrams are double-referenced against the reference surface as well as against blank injections.
The double-referenced sensorgrams are fit to a simple reversible Langmuir 1:1 reaction mechanism as implemented in the Biacore® T200 evaluation software 2.0 (GE Healthcare). In cases were full compound dissociation has not occurred at the end of the dissociation phase, the Rmax parameter (response at saturation) is fit as local variable. In all other cases, Rmax is fit as global variable.

T1 sequence (P50750 whole entry): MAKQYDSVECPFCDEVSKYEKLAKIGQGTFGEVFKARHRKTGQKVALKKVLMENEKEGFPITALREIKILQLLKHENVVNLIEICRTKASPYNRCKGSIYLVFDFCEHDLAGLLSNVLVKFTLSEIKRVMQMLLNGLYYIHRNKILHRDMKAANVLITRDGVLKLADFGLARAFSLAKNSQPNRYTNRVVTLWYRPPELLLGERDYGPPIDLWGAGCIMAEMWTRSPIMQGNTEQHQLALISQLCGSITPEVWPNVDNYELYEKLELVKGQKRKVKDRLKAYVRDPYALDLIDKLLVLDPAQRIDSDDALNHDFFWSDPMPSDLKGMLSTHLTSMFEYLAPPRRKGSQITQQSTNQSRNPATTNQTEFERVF
T1 sequence (O60563 whole entry partner): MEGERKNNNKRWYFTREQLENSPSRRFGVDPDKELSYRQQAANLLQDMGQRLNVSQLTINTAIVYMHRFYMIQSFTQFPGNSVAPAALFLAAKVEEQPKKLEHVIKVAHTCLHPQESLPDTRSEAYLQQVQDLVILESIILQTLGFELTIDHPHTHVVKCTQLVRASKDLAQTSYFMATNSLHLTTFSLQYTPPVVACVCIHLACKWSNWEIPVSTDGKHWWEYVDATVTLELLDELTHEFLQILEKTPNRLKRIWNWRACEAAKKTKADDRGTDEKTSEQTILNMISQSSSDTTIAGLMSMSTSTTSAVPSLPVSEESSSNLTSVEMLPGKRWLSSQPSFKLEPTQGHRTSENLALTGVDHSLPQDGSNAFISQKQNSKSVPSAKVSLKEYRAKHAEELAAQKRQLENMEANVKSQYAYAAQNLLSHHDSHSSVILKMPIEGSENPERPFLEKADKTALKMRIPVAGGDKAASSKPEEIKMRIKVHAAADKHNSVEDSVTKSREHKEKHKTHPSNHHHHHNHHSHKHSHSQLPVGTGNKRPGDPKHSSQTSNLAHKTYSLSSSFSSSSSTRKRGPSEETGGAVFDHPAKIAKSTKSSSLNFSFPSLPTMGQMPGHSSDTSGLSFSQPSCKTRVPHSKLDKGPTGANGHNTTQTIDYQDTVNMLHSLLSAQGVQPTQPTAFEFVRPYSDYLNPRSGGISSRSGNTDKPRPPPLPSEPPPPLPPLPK

IC50 (B16F10 cells): 176 nM
residence time ([1]; 1/koff, * = arithmetic means, read-out: Target residence time): 25 min
Kd ([1]; * = arithmetic means of more than one value, read-out: Equilibrium dissociation constant KD): 1.2 nM
koff ([1]; * = arithmetic means, < = below what is resolvable, read-out: Dissociation rate constant koff): 0.00067 s⁻¹
Structure (SMILES): CS(=N)(=O)Cc1cc2cc(c1)OCCCCOc1cc(ccc1F)-c1nc(ncc1F)N2 (racemic) [Example 4, (rac)-3,20-difluoro-10-[(S-methylsulfonimidoyl)methyl]-13,18-dioxa-5,7,25-triazatetracyclo[17.3.1.1^2,6.1^8,12]pentacosa-1(23),2(25),3,5,8(24),9,11,19,21-nonaene]
